Test results as given in patent US12006294B2, “Therapeutic compounds” (REGENTS OF THE UNIVERSITY OF MINNESOTA, priority 2017, dated 2024).
Counter-ions that a name gives are not always drawn. Like-named read-outs stand apart in the source and are kept apart here.

System: Hela Cells
Assay: Cellular ER stress model (tunicamycin, WST-8 cell viability)
[1] = Homo sapiens, HeLa, 48 h, read-out: % Cell Survival Cmpd(2.5 μM) + Tuni, Hela cells, compound 2.5 μM + tunicamycin, WST-8 viability 48 hours after tunicamycin treatment
[2] = Homo sapiens, HeLa, 48 h, read-out: Compounds ERS (vs Tn), ERS activity vs Tuni = % cell survival (compound)/% cell survival (tunicamycin), compound 2.5 μM

SMILES	viability at 2.5 µM [1] [%]	viability at 2.5 µM [2] [%]	other results
N=C(N)N/N=C/c1c(O)cccc1Cl [BC2-59-2]			viability at 2.5 µM (Homo sapiens, HeLa, 48 h, read-out: % Cell Survival Cmpd(2.5 μM) + Tuni): 39%; viability at 2.5 µM (Homo sapiens, HeLa, 48 h, read-out: Compounds ERS (vs Tn)): 94%
CC(Oc1c(Cl)cccc1Cl)C1=NCCN1 (stereo not drawn) [Lofexidine Hcl]	35.4	107	
Cc1cc(=O)nc(N/N=C/c2c(Cl)cccc2Cl)[nH]1 [JM3-197-2, (E)-2-(2-(2,6-dichlorobenzylidene)hydrazinyl)-6-methylpyrimidin-4(1H)-one]	20.4	106	
N=C(N)NNCc1c(Cl)cccc1Cl [JM3-227-2, 2-(2,6-dichlorobenzyl)hydrazine-1-carboximidamide]			% Cell Survival Cmpd(2.5 μM) + Tuni (Hela cells, compound 2.5 μM + tunicamycin, WST-8 viability 48 hours after tunicamycin treatment): 27.92%
Cc1[nH]c(N/N=C/c2ccc(Cl)c(Cl)c2)nc(=O)c1C [JM3-209-2, (E)-2-(2-(3,4-dichlorobenzylidene)hydrazinyl)-5,6-dimethylpyrimidin-4(1H)-one]	21.6	113	
N=C(N)N/N=C/c1ccc(Br)cc1Cl [JM3-57-2, (E)-2-(4-bromo-2-chlorobenzylidene)hydrazine-1-carboximidamide acetate]	28.1	107	
CC(C)c1cccc(C(C)C)c1/C=N/NC(=N)N [JM3-99-2, (E)-2-(2,6-diisopropylbenzylidene)hydrazine-1-carboximidamide]	20.9	91	
Clc1ccc(Cl)c(/C=N/NC2=NCCCN2)c1Cl [JM3-155-2, (E)-2-(2-(2,3,6-trichlorobenzylidene)hydrazinyl)-1,4,5,6-tetrahydropyrimidine hydrochloride]	31.2	135	
Cc1[nH]c(N/N=C/c2ccccc2Cl)nc(=O)c1C [JM3-213-2, (E)-2-(2-(2-chlorobenzylidene)hydrazinyl)-5,6-dimethylpyrimidin-4(1H)-one]	22.8	119	
N=C1NCCCN1/N=C/c1c(Cl)cccc1Cl [JM3-255-2, (E)-1-((2,6-dichlorobenzylidene)amino)tetrahydropyrimidin-2(1H)-imine hydrobromide]	24.5	104	
Fc1ccccc1/C=N/NC1=NCCN1 [JM2-115-2, (E)-2-(2-(2-fluorobenzylidene)hydrazinyl)-4,5-dihydro-1H-imidazole hydrochloride]	35.6	112	
N=C(N)N/N=C/c1c(F)cccc1F [JM1-191-2, (E)-2-(2,6-difluorobenzylidene)hydrazine-1-carboximidamide acetate]	45.7	66	
N=C(N)NNCc1c(Cl)cccc1Cl [JM2-185-2]	31.7	100	
Cc1cccc(C)c1/C=N/NC1=NCCN1 [JM2-85-2, (E)-2-(2-(2,6-dimethylbenzylidene)hydrazinyl)-4,5-dihydro-1H-imidazole hydrochloride]	62.3	145	
Cc1[nH]c(N/N=C/c2c(Cl)ccc(Cl)c2Cl)nc(=O)c1C [JM3-205-2, (E)-5,6-dimethyl-2-(2-(2,3,6-trichlorobenzylidene)hydrazinyl)pyrimidin-4(1H)-one]	20.7	108	
Cc1cc(=O)nc(N/N=C/c2c(Cl)ccc(Cl)c2Cl)[nH]1 [JM3-201-2, (E)-6-methyl-2-(2-(2,3,6-trichlorobenzylidene)hydrazinyl)pyrimidin-4(1H)-one]	20	104	
Brc1ccccc1/C=N/NC1=NCCN1 [JM2-191-2, (E)-2-(2-(2-bromobenzylidene)hydrazinyl)-4,5-dihydro-1H-imidazole hydrochloride]	39.5	125	
N=C(N)N/N=C/c1c(Cl)cc(-c2ccccc2)cc1Cl [JM3-67-2, (E)-2-((3,5-dichloro-[1,1′-biphenyl]-4-yl)methylene)hydrazine-1-carboximidamide]	23.3	102	
N=C(N)N/N=C/Cc1c(Cl)cccc1Cl [JM3-239-2, (E)-2-(2-(2,6-dichlorophenyl)ethylidene)hydrazine-1-carboximidamide acetate]	28.1	119	
Clc1cccc(Cl)c1CC1=NCCN1 [JM2-87-2, 2-(2,6-dichlorobenzyl)-4,5-dihydro-1H-imidazole]	54.3	124	
CCc1cccc(CC)c1/C=N/NC(=N)N [JM2-233-2]	31.8	121	
CN(C)C(=N)N/N=C/c1c(Cl)cccc1Cl [JM2-289-2, (E)-2-(2,6-dichlorobenzylidene)-N,N-dimethylhydrazine-1-carboximidamide hydroiodide]	33.8	128	

SMILES	viability at 2.5 µM [1] [%]	viability at 2.5 µM [2] [%]	other results
N=C(N)NC(=O)Cc1c(Cl)cccc1Cl [JM2-287-2, N-carbamimidoyl-2-(2,6-dichlorophenyl)acetamide hydrochloride]	33	111	
Clc1ccccc1/C=N/NC1=NCCN1 [JM2-113-2, (E)-2-(2-(2-chlorobenzylidene)hydrazinyl)-4,5-dihydro-1H-imidazole hydrochloride]	35.2	111	
CN(/N=C/c1c(Cl)cccc1Cl)C(=N)N [JM3-257-2, (E)-2-(2,6-dichlorobenzylidene)-1-methylhydrazine-1-carboximidamide hydroiodide]	31.2	132	
CNC(=N)N/N=C/c1c(Cl)cccc1Cl [JM2-171-2, (E)-2-(2,6-dichlorobenzylidene)-N-methylhydrazine-1-carboximidamide hydroiodide]	67	212	
FC(F)(F)c1cccc(Cl)c1/C=N/NC1=NCCN1 [JM2-131-2, (E)-2-(2-(2-chloro-6-(trifluoromethyl)benzylidene)hydrazinyl)-4,5-dihydro-1H-imidazole hydrochloride]	62.6	198	
N=C(N/N=C/c1c(Cl)cccc1Cl)Nc1ccccc1 [JM2-175-2, (E)-2-(2,6-dichlorobenzylidene)-N-phenylhydrazine-1-carboximidamide hydroiodide]	34.3	108	
N=C(N)N/N=C/c1ccccc1[N+](=O)[O-] [JM3-13-2, (E)-2-(2-nitrobenzylidene)hydrazine-1-carboximidamide acetate]	27.4	104	
CC(C)c1cccc(Cl)c1/C=N/NC(=N)N [JM3-89-2, (E)-2-(2-chloro-6-isopropylbenzylidene)hydrazine-1-carboximidamide acetate]	22	96	
N=C(N)N/N=C/c1cc(Cl)ccc1Cl [JM3-11-2, (E)-2-(2,5-dichlorobenzylidene)hydrazine-1-carboximidamide acetate]	40.2	153	
NC(=O)N/N=C/c1ccccc1Br [JM3-219-4, (E)-2-(2-bromobenzylidene)hydrazine-1-carboxamide hydrochloride]	20	104	
N=C(N)N/N=C/c1c(C(F)(F)F)cccc1C(F)(F)F [JM3-141-2, (E)-2-(2,6-bis(trifluoromethyl)benzylidene)hydrazine-1-carboximidamide acetate]	19.6	86	
CC(C1=NCCN1)c1c(Cl)cccc1Cl (stereo not drawn) [JM2-101-2, 2-(1-(2,6-dichlorophenyl)ethyl)-4,5-dihydro-1H-imidazole]	49.5	107	
O=C(/C=C/c1ccccc1)NC(NC(=S)Nc1cccc2cccnc12)C(Cl)(Cl)Cl (stereo not drawn) [Salubrinal, reference compound]	23.8	103	% Cell Survival Cmpd + Tuni (Hela cells, Salubrinal 25 μM + tunicamycin, WST-8 48 hours): 38.46%; viability at 25 µM (Homo sapiens, HeLa, 48 h, read-out: Compounds ERS (vs Tn), % cell survival (compound)/% cell survival (tunicamycin), Salubrinal 25 μM): 116%
N=C(N)N/N=C/c1c(Cl)cc(OCc2ccccc2)cc1Cl [JM2-195-2, (E)-2-(4-(benzyloxy)-2,6-dichlorobenzylidene)hydrazine-1-carboximidamide acetate]	24.1	76	
NC(=O)N/N=C/c1ccccc1Cl [JM3-223-2, (E)-2-(2-chlorobenzylidene)hydrazine-1-carboxamide hydrochloride]	28	118	
N=C(N)Nc1ccnn1-c1c(Cl)cccc1Cl [JM1-285-2, 1-(1-(2,6-dichlorophenyl)-1H-pyrazol-5-yl)guanidine]	41.9	101	
Clc1cccc(/C=N/NC2=NCCN2)c1Cl [JM3-149-2, (E)-2-(2-(2,3-dichlorobenzylidene)hydrazinyl)-4,5-dihydro-1H-imidazole hydrochloride]	29.1	125	
Cc1cc(=O)nc(N/N=C/c2c(F)cccc2Cl)[nH]1 [JM2-203-2, (E)-2-(2-(2-chloro-6-fluorobenzylidene)hydrazinyl)-6-methylpyrimidin-4(1H)-one]	19.7	103	
NC(=O)N/N=C/c1ccccc1I [JM3-225-2, (E)-2-(2-iodobenzylidene)hydrazine-1-carboxamide hydrochloride]	22.8	96	
Clc1cccc(Cl)c1CC1=NCCCN1 [JM2-271-2, 2-(2,6-dichlorobenzyl)-1,4,5,6-tetrahydropyrimidine]	32.3	123	
Nc1ccnn1-c1c(Cl)cccc1Cl [JM1-217-2, 1-(2,6-dichlorophenyl)-1H-pyrazol-5-amine]	40.6	97	
